Measured values taken from patent publication US5554789A, “Arylpropionic derivative, a process for the preparation and the use thereof as an analgesic agent” (Laboratorios Menarini S.A., priority 1992, dated 1996).
Where a name gives a salt, the structure may show the parent alone. Read-outs that look alike come from different tables or passages of the source.

Experiments:
Swiss male mice = assay: Phenylbenzoquinone writhing test (analgesic activity); format: in vivo
[1] = cited from earlier work
[2] = Analgesic action (general statements); format: in vivo
[3] = Plasmatic levels of the (+)-(S) enantiomer in humans; settings: vs (+)-(S)-ketoprofen free acid or double dose of racemic ketoprofen free acid
pH in aqueous solution = format: physicochemical
[4] = Gastrolesive effect in animals
Hygroscopicity = format: physicochemical
[5] = Toxicity (general statement); settings: compared with the other derivatives
[6] = Dissolution rate in water; format: physicochemical; settings: compared with compound (I)
[7] = background; cited from earlier work

SMILES: CC(C(=O)O)c1cccc(C(=O)c2ccccc2)c1 (racemic) [(R,S)-ketoprofen tromethamine salt]
- % Inhibition (analgesic effect, phenylbenzoquinone test) (Swiss male mice; intravenously, 0.30 mg/kg (amount of ketoprofen injected)): 62.9 ± 11.7%

SMILES: CC(C(=O)O)c1cccc(C(=O)c2ccccc2)c1 (racemic) [(R,S)-ketoprofen, 2-(3-Benzoylphenyl)propionic acid]
- analgesic and antipyretic action ([1]; background): potent analgesic and antipyretic action
- % Inhibition (analgesic effect, phenylbenzoquinone test) (Swiss male mice; orally, 30 minutes prior to phenylbenzoquinone, 0.30 mg/kg): 50.0 ± 7.8%

SMILES: C[C@H](C(=O)O)c1cccc(C(=O)c2ccccc2)c1 [(+)-(S)-ketoprofen, (+)-(S)-2-(3-benzoylphenyl)propionic acid]
- analgesic action ([1]; vs the racemic, administered doses being equal): faster acting and more potent analgesic than the racemic

SMILES: C[C@H](C(=O)O)c1cccc(C(=O)c2ccccc2)c1 [I, (+)-(S)-2-(3-benzoylphenyl)propionic acid tromethamine salt]
- analgesic action (onset, response, duration) ([2]; vs racemic ketoprofen): faster onset of analgesic action, an enhanced analgesic response and a longer duration than racemic ketoprofen
- analgesic action and response ([2]; vs racemic ketoprofen tromethamine salt): faster action and enhanced analgesic response than the racemic ketoprofen tromethamine salt
- plasmatic levels of the active (+)-(S) enantiomer [3]: higher plasmatic levels of the active (+)-(S) enantiomer in a far shorter time
- pH in aqueous solution (pH in aqueous solution): physiologically compatible pH in aqueous solution
- gastrolesive effect ([4]; animals, vs (+)-(S)-, (-)-(R)- and racemic ketoprofen): much less gastrolesive
- gastrolesive effect ([4]; vs corresponding free acid or racemic ketoprofen): markedly less gastrolesive than the corresponding free acid or the racemic ketoprofen
- hygroscopicity (Hygroscopicity): very low hygroscopicity
- analgesic effectiveness compared with racemic ketoprofen (Swiss male mice; phenylbenzoquinone writhing test, intravenous and oral): same analgesic effectiveness as a racemic ketoprofen double dose
- toxicity [5]: lower toxicity

SMILES: C[C@H](C(=O)O)c1cccc(C(=O)c2ccccc2)c1 [L-lysine salt]
- dissolution rate [6]: significantly lower

SMILES: CC(C(=O)O)c1cccc(C(=O)c2ccccc2)c1 (stereo not drawn) [sodium salt]
- hygroscopicity [7]: high hygroscopicity
